Measured values from BindingDB's records for PubMed 33422907 (Universita Paul Sabatier, 2021).

What follows are compounds tested against Signal transducer and activator of transcription 3 (Homo sapiens, UniProt P40763) (assay: Inhibition of STAT3 in human Hep3B cells assessed as inhibition of IL-6 stimulated STAT3 expression by luciferase reporter assay).
Signal transducer and activator of transcription 3, sequence (P40763 whole entry): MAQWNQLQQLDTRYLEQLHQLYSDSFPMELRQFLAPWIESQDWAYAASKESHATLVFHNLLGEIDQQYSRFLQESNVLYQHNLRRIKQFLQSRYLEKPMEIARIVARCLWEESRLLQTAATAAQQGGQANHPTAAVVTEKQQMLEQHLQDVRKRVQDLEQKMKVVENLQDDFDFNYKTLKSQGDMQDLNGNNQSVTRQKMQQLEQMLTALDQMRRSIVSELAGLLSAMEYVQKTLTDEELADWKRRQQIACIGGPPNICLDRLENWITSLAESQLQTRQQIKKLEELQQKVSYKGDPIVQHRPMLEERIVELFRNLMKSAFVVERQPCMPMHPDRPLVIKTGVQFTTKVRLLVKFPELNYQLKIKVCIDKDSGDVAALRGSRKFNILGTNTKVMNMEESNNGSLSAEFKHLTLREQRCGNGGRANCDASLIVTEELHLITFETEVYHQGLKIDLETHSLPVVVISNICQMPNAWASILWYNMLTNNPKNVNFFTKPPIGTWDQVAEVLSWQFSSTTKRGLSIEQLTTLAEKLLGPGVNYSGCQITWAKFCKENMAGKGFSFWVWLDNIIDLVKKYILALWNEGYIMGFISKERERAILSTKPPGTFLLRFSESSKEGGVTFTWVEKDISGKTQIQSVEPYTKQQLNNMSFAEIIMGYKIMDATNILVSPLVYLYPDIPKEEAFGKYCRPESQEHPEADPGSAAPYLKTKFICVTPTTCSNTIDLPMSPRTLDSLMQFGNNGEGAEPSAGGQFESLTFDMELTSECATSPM
In the case of O=[N+]([O-])c1ccc2c(c1)S(=O)(=O)C=C2, the IC50 is reported as 0.67 µM.
COc1ccc(CC[C@@H](O)C[C@H](O)CCc2ccc(OC)c(OC)c2)cc1OC was tested, and the IC50 was 50 µM.
Compound COc1ccc(CC[C@H](O)C[C@@H](O)/C=C/c2cc(OC)c(OC)c(OC)c2)cc1OC has an IC50 of 37.6 µM.
COc1ccc(/C=C/[C@H](O)C[C@@H](O)CCc2ccc(OC)c(OC)c2)cc1OC gave an IC50 of 19.9 µM.
For COc1ccc(/C=C/[C@@H](C[C@@H](O)CCc2ccc(OC)c(OC)c2)OC)cc1OC, the IC50 was 12.9 µM.
COc1ccc(/C=C/C(C[C@H](O)CCc2ccc(OC)c(OC)c2)OC)cc1OC (stereo partly drawn) gave an IC50 of 11.1 µM.
COc1ccc(/C=C/C=C/C(=O)/C=C/c2ccc(O)cc2)cc1 gave an IC50 of 4.1 µM.
Compound COc1cc(/C=C/C(=O)CC(=O)CC(O)c2ccc(O)c(OC)c2)ccc1O (stereo not drawn) has an IC50 of 21.5 µM.
